Consider 6 molecules from ChEMBL document CHEMBL1212723, “Bioactivity-guided mapping and navigation of chemical space” (Nat Chem Biol, 2009).

pEC50, pIC50, pKi: −log10 of the molar value. Calls of active or inactive are those of the source. No cut-off for these calls is given here.

For assay [1], the target named is T1, Estrogen receptor beta (Homo sapiens, UniProt Q92731). As to the kind of experiment: Antagonist activity at human ERbeta ligand binding domain expressed in Escherichia coli BL21(DE3) cells assessed as inhibition of coactivator 53-protein binding by fluorescence assay.
Assay [2] addresses T1, Estrogen receptor beta. Kind of assay: Binding affinity to human ERbeta ligand binding domain expressed in Escherichia coli BL21(DE3) cells assessed as recruitment of fluorescently labeled nuclear coactivator Scr1 after 1 hr by fluorescence polarization assay. (In general: In fluorescence polarisation assays a small probe gives low polarisation when free and higher when bound to something large.)

The target in assay [3] is T1, Estrogen receptor beta. As to the kind of experiment: Agonist activity at human ERbeta ligand binding domain expressed in Escherichia coli BL21(DE3) cells assessed as induction of coactivator 53-protein binding by fluorescence assay.
Assay [4] has as its target T2, Estrogen receptor (Homo sapiens, UniProt P03372).
T2 sequence (P03372 whole entry): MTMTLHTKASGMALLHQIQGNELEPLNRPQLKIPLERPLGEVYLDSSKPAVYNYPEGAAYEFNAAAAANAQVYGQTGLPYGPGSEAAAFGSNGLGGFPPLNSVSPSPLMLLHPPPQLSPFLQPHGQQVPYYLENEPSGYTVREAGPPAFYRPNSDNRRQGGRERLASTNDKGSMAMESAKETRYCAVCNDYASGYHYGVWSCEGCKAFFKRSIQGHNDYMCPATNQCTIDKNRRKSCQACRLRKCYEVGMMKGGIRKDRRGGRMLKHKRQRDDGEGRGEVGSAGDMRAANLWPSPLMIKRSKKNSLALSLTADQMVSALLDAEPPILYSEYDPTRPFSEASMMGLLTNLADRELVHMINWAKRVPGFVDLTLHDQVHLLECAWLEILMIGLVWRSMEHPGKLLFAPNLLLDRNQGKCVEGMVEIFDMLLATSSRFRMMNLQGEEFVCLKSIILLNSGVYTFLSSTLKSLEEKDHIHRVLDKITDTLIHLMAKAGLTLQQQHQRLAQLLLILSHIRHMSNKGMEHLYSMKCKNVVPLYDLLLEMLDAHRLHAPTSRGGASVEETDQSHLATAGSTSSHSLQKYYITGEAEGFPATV

Assay [5] addresses T2, Estrogen receptor. Kind of assay: biochemical.
Description: Binding affinity to human ERalpha ligand binding domain expressed in Escherichia coli BL21(DE3) cells assessed as recruitment of fluorescently labeled nuclear coactivator Scr1 after 1 hr by fluorescence polarization assay
Assay [6] addresses T3, Polyunsaturated fatty acid 5-lipoxygenase (Homo sapiens, UniProt P09917).
T3 sequence (P09917 whole entry): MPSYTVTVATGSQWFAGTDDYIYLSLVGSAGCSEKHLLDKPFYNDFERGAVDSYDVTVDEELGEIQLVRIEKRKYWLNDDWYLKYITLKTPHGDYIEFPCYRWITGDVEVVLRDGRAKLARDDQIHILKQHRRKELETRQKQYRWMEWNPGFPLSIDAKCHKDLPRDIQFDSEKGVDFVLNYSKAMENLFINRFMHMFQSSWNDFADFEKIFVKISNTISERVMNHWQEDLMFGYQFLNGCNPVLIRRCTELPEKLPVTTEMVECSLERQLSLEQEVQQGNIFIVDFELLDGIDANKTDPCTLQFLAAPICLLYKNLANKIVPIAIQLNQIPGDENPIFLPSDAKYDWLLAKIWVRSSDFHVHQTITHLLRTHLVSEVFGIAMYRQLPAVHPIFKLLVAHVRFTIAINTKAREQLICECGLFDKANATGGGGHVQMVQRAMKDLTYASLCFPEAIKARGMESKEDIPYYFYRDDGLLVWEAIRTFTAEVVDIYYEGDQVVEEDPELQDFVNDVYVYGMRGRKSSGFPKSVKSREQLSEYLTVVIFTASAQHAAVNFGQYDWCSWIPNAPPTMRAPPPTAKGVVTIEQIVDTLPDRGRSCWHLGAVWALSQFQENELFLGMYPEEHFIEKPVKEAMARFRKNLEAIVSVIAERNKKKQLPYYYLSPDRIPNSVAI
Kind of assay: Inhibition of LOX5 in human whole blood assessed as inhibition of conversion of arachidonic acid to leukotriene. In kind it is tissue-based.

T1 sequence (Q92731 whole entry, the tested form may be a part): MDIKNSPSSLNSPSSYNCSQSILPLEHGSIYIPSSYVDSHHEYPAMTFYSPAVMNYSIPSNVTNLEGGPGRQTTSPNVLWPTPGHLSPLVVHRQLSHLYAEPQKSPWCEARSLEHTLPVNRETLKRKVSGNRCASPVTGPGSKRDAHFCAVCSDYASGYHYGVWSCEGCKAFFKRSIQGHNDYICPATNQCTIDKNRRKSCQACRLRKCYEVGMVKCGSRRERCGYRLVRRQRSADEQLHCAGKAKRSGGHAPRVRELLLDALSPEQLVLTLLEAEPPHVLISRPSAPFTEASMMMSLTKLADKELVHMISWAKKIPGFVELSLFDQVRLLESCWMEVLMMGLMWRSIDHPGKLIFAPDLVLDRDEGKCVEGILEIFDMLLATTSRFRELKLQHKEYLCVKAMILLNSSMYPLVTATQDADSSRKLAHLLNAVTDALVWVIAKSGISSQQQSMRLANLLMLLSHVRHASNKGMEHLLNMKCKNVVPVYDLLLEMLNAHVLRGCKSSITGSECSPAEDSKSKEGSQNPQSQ

For the molecule `O=S(=O)(c1ccccc1)N1CCc2cc(O)ccc2[C@H]1c1ccc(OCCN2CCCC2)cc1`, the inhibition entry at Estrogen receptor beta [1] is “Active”.

With `O=S(=O)(c1ccc2ccccc2c1)N1CCc2cc(O)ccc2[C@H]1c1ccc(OCCN2CCCC2)cc1`, the inhibition entry on Estrogen receptor beta [1] was “Active”.

In general, pEC50 refers to the EC50 on a negative log10 scale, so that one unit is a factor of ten. In general, pKi refers to the Ki on a negative log10 scale, so that one unit is a factor of ten. A high value points to a small Ki. With `O=C(N1CCc2cc(O)ccc2C1)C(F)(F)F`, the pEC50 on Estrogen receptor beta [2] was 5.34; on Estrogen receptor [5] it was 6.56. On Estrogen receptor beta [3], the result was Active. At Estrogen receptor [4], this molecule showed a pKi of 8.70.

With `O=C(N1CCc2cc(O)ccc2[C@H]1c1ccc(OCCN2CCCC2)cc1)C(F)(F)F`, the inhibition entry on Estrogen receptor beta [1] was “Active”.

Broadly, the pIC50 is −log10 of the IC50, conventionally taken in molar units. Regarding `c1ccc(COc2ccc3ccccc3c2)cc1`, in assay [6], the pIC50 is 5.02.

For the molecule `CN(C)CCNC(=O)c1ccc(COc2ccc3ccccc3c2)cc1`, in assay [6], the negative-log IC50 (pIC50) is 5.52.
